Key:
L6 cells = test: Glucose uptake test by L6 cells; type: cell-based; settings: Rattus norvegicus, 1 hour, 2-deoxy-[3H]-glucose uptake, control (MEM solvent alone) = 100%, read-out: Ratio activity (%); for activity at 10 µg/mL: treatment concentration 10 μg/ml; for activity at 100 µg/mL: treatment concentration 100 μg/ml
Procedure: Glucose Uptake Test by L6 Cells
Each of compounds under test was applied to L6 cells (rat cells originally derived from skeletal muscles) by the following method to measure the stimulating effect on glucose uptake. Namely, L6 cells were suspended in α-minimum essential medium (hereinafter referred to simply as MEM) containing 10% fetal bovine serum (hereinafter referred to simply as FBS), and inoculated into a 96-well plastic plate in an amount of 5×10^4 cells/well and cultivated in an incubator (5% carbon dioxide gas, 37° C.) until the cells grew all over the well. Then, the culture medium was switched to MEM solution containing 2% BS, followed by cultivation further for from 7 to 10 ays (the culture medium was exchanged every three days) to differentiate the cells into skeletal muscle cells. Then, the culture medium was replaced with MEM solution without FBS, followed by cultivation for three hours, and then the compound under test prepared to a treatment concentration (diluted with MEM solution without FBS) was reacted with the skeletal muscle cells at 37° C. for 1 hour. The cells were washed with Krebs-Henseleit-Ringer buffer solution (hereinafter referred to simply as KHR buffer solution), and 2-deoxy-[^3H]-glucose was added to the cells in the KHR buffer solution, followed by treatment at 37° C. for 10 minutes. The treatment solution was removed, the cells were washed with the KHR buffer solution, then the cells were dissolved in a 1N sodium hydroxide solution in an appropriate amount, and the [^3H] radio activity was measured by means of a liquid scintillation counter (cpm) The percentage of the glucose uptake was represented by the percentage of radio activity when the compound under test was applied, taking the radio activity of the control (the MEM solvent alone was applied) as 100%. Each of the compounds as identified in Table 27 was used for treatment at a concentration of each of 10 μg/ml and 100 μg/ml to examine the stimulating effect on glucose uptake.

KK-Ay/Ta mice = test: Test for hypoglycemic effect in KK-Ay/Ta mice; type: in vivo; settings: 50 mg/kg single oral dose, percentage to level before administration, significant vs vehicle control (P≦0.05)
Procedure: Using KK-Ay/Ta mice (purchased from CLEA Japan, Inc.) as spontaneous diabetic type II, the hypoglycemic effect of each of compounds under test was confirmed by the following method.
Male KK-Ay/Ta mice sufficiently preliminarily bred and acclimatized were classified into groups, each consisting of six mice, and each of the compounds under test was administered. Each of the compounds under test as suspended in 0.5% carboxymethyl cellulose (manufactured by Nacalai Tesque), and each compound was orally administered singly in a dose of 50 mg/kg (10 ml/kg) by means of an oral conductor. At the same time, as a group of vehicle control, 0.5% carboxymethyl cellulose was administered in the same volume (10 ml/kg) as for the group of administration of compound under test.
Collection of blood was carried out by the following method before the administration of each of the compounds under test or the vehicle, and at the time as identified in Table 28 after the administration. The tail vein of each mouse was shallowly cut by the edge of a razor to cause bleeding in an amount of blood of from 10 to 20 μL, and the blood was collected by a micropipet. The collected blood samples were immediately mixed with a heparin solution (20 U/ml) (manufactured by Mochida Yakuhin) in the same amount as the respective collected blood samples, and subjected to centrifugation at 4° C. for 5 minutes (10,000 rpm) by means of a cooling centrifugal machine. The plasma after the centrifugation was obtained as a sample for blood glucose level measurement.
The blood glucose level was measured by means of glucose oxidase method, and measured by using a commercially available assay kit (Glucose CII TEST WAKO, manufactured by Wako Pure Chemical Industries, Ltd.). Measurement was carried out on the day after the collection of blood, and the obtained plasma was stored at −20° C. before the measurement.
The blood glucose level at the time of collection of blood was calculated as the percentage to the blood glucose level before administration of the compound under test, and the hypoglycemic effect of the compound under test was evaluated by comparison with the change of the blood glucose level (percentage) of the group of vehicle control at the time of collection of blood. The evaluation results of the hypoglycemic effect are considered to have a significant difference compared with the vehicle control by means of Wilcoxon's rank sum test (P≦0.05)

Row | Structure (SMILES) | melting point | activity at 10 µg/mL (L6 cells) | activity at 100 µg/mL (L6 cells) | Rate of change of blood glucose level (KK-Ay/Ta mice; after 3 hours) | Rate of change of blood glucose level (KK-Ay/Ta mice; after 6 hours)
1 | CSc1nc2ccnn2c(NCc2ccncc2)c1C#N [Compound No. 3, 7-(4-pyridylmethyl)amino-5-methylthiopyrazolo[1,5-a]pyrimidine-6-carbonitrile] | 153 to 154 °C | > 115% | > 115% | 78% | 
2 | CSc1nc2ccnn2c(NCC2OCCO2)c1C#N [compound 8] | 157 to 158 °C |  | > 115% |  | 68%
3 | CSc1nc2ccnn2c(NCc2ccc(C)cc2)c1C#N [compound 50] | 159 °C | > 115% | > 115% | 74% | 
4 | CSc1nc2ccnn2c(Nc2ccccc2Cl)c1C#N [compound 163] | 201 to 202 °C | > 115% |  |  | 
5 | CSc1nc2ccnn2c(Nc2ccc(C#N)cc2)c1C#N [compound 168] | 280 to 281 °C | > 115% | > 115% |  | 
6 | CSc1nc2ccnn2c(NOCc2ccccc2)c1C#N [compound 172] | 177 to 178 °C | > 115% | > 115% |  | 
7 | C=CCONc1c(C#N)c(SC)nc2ccnn12 [compound 174] | 129 to 130 °C |  | > 115% |  | 
8 | CSc1nc2ccnn2c(Nc2ccc([N+](=O)[O-])cc2)c1C#N [compound 200] | > 270 °C | > 115% | > 115% | 79% | 
9 | CSc1nc2ccnn2c(NO)c1C#N [compound 205] | 214 to 218 °C | > 115% |  |  | 
10 | CSc1nc2ccnn2c(NCCc2ccccn2)c1C#N [compound 206] | 138 to 139 °C | > 115% |  |  | 
11 | CSc1nc2ccnn2c(NCCC2OCCO2)c1C#N [compound 210] | 96 to 97 °C | > 115% | > 115% |  | 
12 | CSc1nc2ccnn2c(NCCc2ccncc2)c1C#N [compound 215] | 184 to 185 °C | > 115% |  |  | 
13 | CCOC(=O)c1c(SC)nc2ccnn2c1NCc1ccncc1 [compound 221] | 123 °C | > 115% | > 115% |  | 
14 | CCOC(=O)c1c(SC)nc2ccnn2c1NCc1ccccc1 [compound 222] | 114 to 115 °C | > 115% |  |  | 
15 | CCOC(=O)c1c(SC)nc2ccnn2c1Nc1cccc(C#N)c1 [compound 223] | 156 to 157 °C | > 115% | > 115% |  | 
16 | CCOC(=O)c1c(SC)nc2ccnn2c1Nc1ccc(C#N)cc1 [compound 224] | 178 °C | > 115% |  |  | 
17 | CCOC(=O)c1c(SC)nc2ccnn2c1Nc1cccc([N+](=O)[O-])c1 [compound 225] | 166 to 168 °C | > 115% |  |  | 
18 | CCOC(=O)c1c(SC)nc2ccnn2c1Nc1ccc([N+](=O)[O-])cc1 [compound 226] | 170 °C | > 115% | > 115% |  | 

The next lines start with results.

Row | melting point | Structure (SMILES) | activity at 10 µg/mL (L6 cells) | activity at 100 µg/mL (L6 cells) | Rate of change of blood glucose level (KK-Ay/Ta mice; after 3 hours) | Rate of change of blood glucose level (KK-Ay/Ta mice; after 6 hours)
19 | 201 to 202 °C | CSc1nc2ccnn2c(Nc2ccc(C)cc2)c1C#N [compound 164] | > 115% |  |  | 
20 | 175 to 176 °C | CSc1nc2ccnn2c(Nc2cc(C)ns2)c1C#N [compound 177] |  | > 115% |  | 
21 | 214 to 215 °C | CSc1nc2ccnn2c(Nc2cccnc2)c1C#N [compound 178] | > 115% | > 115% |  | 
22 | 235 to 238 °C | CSc1nc2cc(C)nn2c(Nc2cccc(C#N)c2)c1C#N [compound 186] | > 115% | > 115% | 80% | 
23 | 155 to 156 °C | CSc1nc2cc(C)nn2c(NOCc2ccccc2)c1C#N [compound 190] |  | > 115% |  | 
24 | 174 to 176 °C | CSc1nc2cc(C)nn2c(Nc2cccc(C)c2)c1C#N [compound 191] | > 115% |  |  | 
25 | 192 to 194 °C | CSc1nc2ccnn2c(Nc2ccccc2C)c1C#N [compound 203] | > 115% |  |  | 
26 | 158 to 159 °C | CSc1nc2ccnn2c(Nc2ccc3c(c2)OCO3)c1C#N [compound 211] | > 115% | > 115% |  | 
27 | 180 to 182 °C | CSc1nc2ccnn2c(Nc2cccc([N+](=O)[O-])c2)c1C#N [compound 218] | > 115% | > 115% |  | 

— US7067520B2, “Preventive or therapeutic medicines for diabetes containing fused-heterocyclic compounds or their salts” (Ishihara Sangyo Kaisha, Ltd., priority 2000, dated 2006)
